Reference: patent US12728121B2, “Compositions and methods for treating idiopathic pulmonary fibrosis” (Seyltx, Inc., priority 2019, dated 2026)

Assays:
Type in all cases: in vivo, Mouse/C57BL/6
[1] = tested on: BLM-induced fibrosis; experiment: Bleomycin (BLM)-induced lung fibrosis in mice: mortality rate over 21 days; conditions: doses as Table 1; for Fatality Number: deaths/mice per group over 21 days, Vehicle 2/10; for Percent Fatality: over 21 days, Vehicle 20%
Method: (§1) The mouse species or strain was Mouse/C57BL/6, the mice being 8-10 week old males. Nine groups of 10 mice each were obtained from Charles River Laboratories. Each group was randomized based on body weight. Bleomycin (BLM) was obtained from Euroasias.
(§2) The mice were anesthetized with isoflurane/O2 mixture. Bleomycin (BLM) was then administered to the mice intratracheally (PennCentury)—single bolus, at 2.5 U/kg body weight in 50 μl sterile saline.
(§3) Seven days after the bleomycin is administered, and fibroblasts have generally proliferated, six of the nine groups of IT bleomycin challenged mice were be dosed orally (p.o.) once a day with Bromantane, Ifenoprodil, Radiprodil, Bemithyl, Dexamethasone, or Repirinast at specified amounts per kg of body weight (mg/kg) daily for 14 consecutive days. The amounts are set out in Table 1 below. The vehicle used was 0.5% carboxymethyl cellulose (CMC). Prifenidone was also prepared in 0.5% CMC and administrated orally once a day to one of the nine IT bleomycin challenged mice groups beginning for 14 consecutive days. Vehicle and no-BLM control groups received 0.5% CMC orally for 14 consecutive days.
Mortality Rate: the mortality rate in each group was also observed over 21 days.

[2] = Bleomycin (BLM)-induced lung fibrosis in mice: body weight over 21 days; conditions: for Percent Change in Body Weight / Body Weight: doses as Table 1; for Body Weight: group mean; for changes in body weight as compared to the BLM-vehicle group (in words): doses as Table 1, p.o. once daily
Method: as §1, §2, §3
Body Weight: The body weights were measured over 21 days using a laboratory balance.

[3] = tested on: BLM-induced fibrosis; experiment: Bleomycin (BLM)-induced lung fibrosis in mice: Gomori's Trichrome score of lung sections; conditions: for Trichrome score (average) / % reduction in fibrosis: day 21; for Trichrome score (average): BLM 2.5 U/kg intratracheal, p.o. once daily 14 days from day 7, mg/kg: Pirfenidone 300, Bromantane 20, Ifenoprodil 30, Radiprodil 30, Bemithyl 200, Dexamethasone 0.25, Repirinast 90, Normal 1.00, Vehicle 4.59; for % reduction in fibrosis: from Trichrome scores relative to vehicle and normal groups, doses as Table 1, p.o. once daily 14 days
Method: as §1, §2, §3
On day 21 of the study, 4 hours after the last dose, the mice were sacrificed and plasma was collected and frozen for cytokine analysis (testing for IL-6, IL-12, TGFβ, IL-13 proteins, or fibrosis markers). Bronchoalveolar lavage fluid (BALF) was collected and frozen for optional cytokine analyses and cell counts pending the initial data. The lungs were then excised, weighed and fixed in formalin. Gomori's Trichrome stain, a histological stain, was used to determine collagen content.
Trichrome Score: A trichrome score measures the level of scarring to the lungs caused by the disease. The greater the trichrome score, the greater the scarring.
Formalin fixed lung samples were submitted to affiliated histopathology laboratory for histopathological analysis subjected Gomori's Trichrome stain, a histological stain, which was used to determine collagen content.
Each lung was divided into ten sections. All ten sections were stained and evaluated. A board certified veterinarian pathologist assessed the presence of lung fibrosis and severity score—The expression of collagen (associated with fibrosis) is determined from the ratio of the stained area versus the total area of the lung section.

[4] = doses as Table 1, order: Dexamethasone and Repirinast, followed by Ifenprodil and Radiprodil

| Compound | Fatality Number [1] | Percent Fatality [1] [%] | Percent Change in Body Weight ([2]; 7-Nov) [%] | Body Weight ([2]; 7-Nov) [g] | Percent Change in Body Weight ([2]; 8-Nov) [%] | Body Weight ([2]; 8-Nov) [g] | Percent Change in Body Weight ([2]; 9-Nov) [%] | Body Weight ([2]; 9-Nov) [g] | Percent Change in Body Weight ([2]; 12-Nov) [%] | Body Weight ([2]; 12-Nov) [g] | Percent Change in Body Weight ([2]; 14-Nov) [%] | Body Weight ([2]; 14-Nov) [g] | Percent Change in Body Weight ([2]; 16-Nov) [%] | Body Weight ([2]; 16-Nov) [g] | Percent Change in Body Weight ([2]; 20-Nov) [%] | Body Weight ([2]; 20-Nov) [g] | Percent Change in Body Weight ([2]; 22-Nov) [%] | Body Weight ([2]; 22-Nov) [g] | Percent Change in Body Weight ([2]; 26-Nov) [%] | Body Weight ([2]; 26-Nov) [g] | also measured |
| --- | --- | --- | --- | --- | --- | --- | --- | --- | --- | --- | --- | --- | --- | --- | --- | --- | --- | --- | --- | --- | --- |
| CCSc1nc2ccccc2[nH]1 [Bemithyl, 2-Ethylsulfanyl-1H-benzoimidazole] | 1/10 | 10 | 0.0 | 24.6 | 0.0 | 24.7 | −0.6 | 24.1 | −1.6 | 23.0 | −1.1 | 23.5 | −1.7 | 22.9 | −1.6 | 23.1 | −0.6 | 24.0 | −0.9 | 23.7 | Percent Change in Body Weight ([2]; 28-Nov): −0.3%; Body Weight ([2]; 28-Nov): 24.3 g; changes in body weight as compared to the BLM-vehicle group (in words) [2]: showed improvement beginning on Day 5; Trichrome score (average) [3]: 4.14; % reduction in fibrosis [3]: 12.5% |
| O=C(Nc1ccc2[nH]c(=O)oc2c1)C(=O)N1CCC(Cc2ccc(F)cc2)CC1 [Radiprodil, 2-[4-[(4-fluorophenyl)methyl]piperidin-1-yl]-2-oxo-N-(2-oxo-3H-1,3-benzoxazol-6-yl)acetamide] | 2/10 | 20 | 0.0 | 23.6 | 0.0 | 23.6 | −0.4 | 23.2 | −2.3 | 21.3 | −1.8 | 21.8 | −1.0 | 22.6 | −1.2 | 22.4 | −0.3 | 23.3 | 0.3 | 24.0 | percent survival (in words) ([1]; order: Dexamethasone and Repirinast, followed by Ifenprodil and Radiprodil): higher; Percent Change in Body Weight ([2]; 28-Nov): 0.4%; Body Weight ([2]; 28-Nov): 24.0 g; changes in body weight as compared to the BLM-vehicle group (in words) [2]: showed improvement beginning on Day 5; Trichrome score (average) [3]: 3.45; Trichrome score response versus BLM-vehicle group (in words) [3, 4]: response was better; percent reduction in lung fibrosis in comparison to the BLM-vehicle group (in words) [3, 4]: higher; % reduction in fibrosis [3]: 31.8%; improvement in lung fibrosis, loss of body weight, Trichrome score and mortality as compared to BLM-vehicle (conclusion, in words) ([3]; oral administration, Dexamethasone 0.25, Repirinast 90, Ifenprodil 30, Radiprodil 30 mg/kg): showed improvement |
